Like-named read-outs stand apart in the source and are kept apart here.
Assays:
HeLa cells [1] = test: Cytotoxicity judged by cellular morphology of HeLa cells; format: cell-based, Human
HeLa cells [2] = test: DNA synthesis ([methyl-3H]thymidine incorporation) in HeLa cells; format: cell-based, Human
Description: (§1) The lack of cytotoxic activity in GM6001 was further supported by measuring DNA synthesis. Subconfluent cells grown in 24 well plates were fed with medium (0.5 ml/well) containing indicated concentrations of GM6001 for 40 hours. 2 μl of [methyl-3H]thymidine (specific activity: 20 Ci/mmole, Moravek Biochemical, Brea, Calif.) was added into the culture and incubated for 2 hours. The amount of thymidine incorporated into DNA was determined as we previously described (3).

L2 [3] = test: Dot blot analysis of MOMP, L2 growth in HeLa cells; format: cell-based, Chlamydia trachomatis
[4] = system: strain 434/bu of serovar L2 (L2, biovar LGV); test: MOMP immunofluorescence of inclusion formation in L2-infected HeLa cells; format: cell-based, Chlamydia trachomatis
Description: Human cervical carcinoma HeLa cells grown on coverslips were exposed to an EB stock of strain 434/bu of serovar L2 (L2, biovar LGV) for 2 hours, washed to remove free EBs, and cultured in medium containing indicated concentrations of GM6001 plus 1 μg/ml cycloheximide, an inhibitor of eukaryotic protein synthesis which is commonly used to facilitate chlamydial growth. 40 hours later, cells were fixed with methanol, and reacted for 1 hour with a monoclonal antibody against the major outer membrane protein (MOMP) of L2. After three washes with PBS, coverslips were reacted with fluorescein isothiocyanate-conjugated goat anti-mouse IgG (Sigma, St. Louis, Mo.) for 30 min. After additional washes, coverslips were mounted onto glass slides and viewed with a Nikon Eclypse E1000 fluorescent microscope.

L2 (biovar LGV) [5] = test: Dot blot analysis of MOMP, L2 growth in A549 cells; format: cell-based, Chlamydia trachomatis; details: 40 hours after infection, 1 μg/ml cycloheximide
Description: Infection of A549 cells and inhibitor treatment were carried out as described above. 40 hours after infection, cells were lysed in 200 μl of H2O, a 50 μl sample of the resulting EB/RB extract was blotted onto Zeta Probe membrane (Bio-Rad), and sequentially reacted with the L2 MOMP antibody described above, and horseradish peroxidase-conjugated rabbit anti-mouse IgG.

L2 (biovar LGV) [6] = test: Live images (light microscope) of inclusion formation in L2-infected HeLa cells; format: cell-based, Chlamydia trachomatis; details: in both the presence and absence of cycloheximide
Description: The inhibition of L2 growth by GM6001 could be viewed directly under a light microscope without immunostaining. Shown in FIG. 1C are images obtained from live cultures.

A549 cells = test: DNA synthesis ([methyl-3H]thymidine incorporation) in A549 cells; format: cell-based, Human
Description: as §1

[7] = system: strain UW-3/Cx of serovar D (biovar trachomatis); test: Chlamydial lipopolysacharide immunostaining of inclusion formation, serovar D in HeLa cells; format: cell-based, Chlamydia trachomatis
MoPn (biovar mouse) = test: Chlamydial DNA synthesis of MoPn (biovar mouse); format: cell-based, Chlamydia trachomatis; details: dose response
Description: We next tested whether GM6001 was also effective against the remaining two biovars of C. trachomatis. […] The effect of GM6001 on biovar mouse was determined by measuring chlamydial DNA synthesis with procedures that we previously detailed (1, 3).

L2 [8] = test: Pretreatment of host HeLa cells or EBs with GM6001, immunostaining of L2 growth; format: cell-based, Chlamydia trachomatis
Description: To address whether suppression of chlamydial growth resulted from inhibition of host or bacterial enzymes, we determined the effect of pretreatment of EB and host cells with a hydroxamate on chlamydial growth. HeLa cells were cultured for 2 h with medium containing 20 °μM GM6001 and washed 3 times with medium before they were infected with a regular EB stock. Likewise, an EB stock was also incubated with GM6001, washed, and added to untreated HeLa cells. As control, GM6001 (final concentration: 20 μM) was added into and maintained in the culture medium after the attachment/entry period.

[9] = system: L. delbrueckii (ATCC 12315); test: Growth of L. delbrueckii in liquid culture (OD600); format: cell-based, Lactobacillus delbrueckii; details: 20 μM, hourly up to 5 h postinoculation
Description: (§2) An E. coli MG1655 colony was inoculated into 10 ml LB broth, which was then divided into 2 ml aliquots. After overnight culture, OD600 measurements were taken. An overnight L. delbrueckii (ATCC 12315) culture was diluted 1:100, and cultured in the presence or absence of 20 μM of GM 6001. OD600 values were measured hourly up to 5 h postinoculation.

[10] = system: Salmonella Enterica Serovar Typhimurium; test: Growth of S. enterica as free-living organism in liquid medium (OD600); format: cell-based
[11] = system: Salmonella Enterica Serovar Typhimurium; test: Intracellular growth of S. enterica in HeLa cells (colony-forming units); format: cell-based; details: 20 μM, 1.5 and 6 h, 50 μg/ml gentamycin
Description: To assess whether its intracellular growth is affected by the inhibitor, HeLa cells were infected with a fresh culture of S. enterica grown to stationary phase as previously described (16). After washes to remove free bacteria, the cells were cultured with medium containing 50 μg/ml gentamycin (to kill any residual free bacteria) plus or minus 20 μM GM6001 for 1.5 and 6 h. Gentamycin was then removed by washes. Intracellular bacteria were released by 0.1% Triton X-100, serially diluted and plated onto LB agar plates. After overnight incubation at 37° C., colony-forming units were scored.

Chlamydia = test: Titration of infectious EBs produced by infected HeLa cells; format: cell-based, Chlamydia trachomatis
Description: Inhibition of chlamydial growth was obtained when GM6001 and TAPI-0 was added to cultures at the end of the two hour attachment/entry period (FIGS. 1-3), a point where free unbound EBs had been removed by extensive washes. The entry-independent inhibition was also seen by titrating infectious EBs produced by infected HeLa cells (FIG. 6). […] At this point, EBs have already completed the entry phase and have differentiated into RBs in inclusions. Even when GM6001 treatment was started 24 h after infection, a point where the number of RBs peaks during the chlamydial developmental cycle, a 99% reduction in EB production was observed (FIG. 6).

E. coli MG1655 = test: Growth of E. coli in LB broth (OD600); format: cell-based, Escherichia coli; details: overnight culture, concentrations indicated in FIG. 4A
Description: as §2

CNC(=O)[C@H](Cc1c[nH]c2ccccc12)NC(=O)[C@H](CC(C)C)NC(=O)OC(C)(C)C [GM6001 Negative Control, N-t-butoxycarbonyl-L-leucyl-L-tryptophan methylamide]
adverse effect on morphology of HeLa cells (HeLa cells [1]; data not shown): no adverse effect | DNA synthesis (thymidine incorporated into DNA) (HeLa cells [2]): no adverse effect | chlamydial (L2) growth, MOMP dot blot (L2 [3]): no detectable effect

CNC(=O)[C@H](Cc1c[nH]c2ccccc12)NC(=O)[C@@H](CC(=O)NO)CC(C)C [GM6001]
number of inclusions (L2 inclusion formation) ([4]; increasing concentrations of GM6001 plus 1 μg/ml cycloheximide, 40 hours): number of inclusions declined progressively | MOMP signal (L2 growth) (L2 (biovar LGV) [5]): no signal was detected | inhibition of L2 growth / inclusion formation in live cultures (L2 (biovar LGV) [6]): effective against chlamydial infection | cytotoxic effects based on morphology (HeLa cells [1]; uninfected or L2-infected HeLa cells): no apparent cytotoxic effects | DNA synthesis (thymidine incorporated into DNA) (HeLa cells [2]): did not exhibit any inhibitory effect | effect on cycloheximide-induced inhibition of DNA synthesis (HeLa cells [2]): no synergistic or additive effect | DNA synthesis (thymidine incorporated into DNA) (A549 cells): did not exhibit any inhibitory effect | effect on cycloheximide-induced inhibition of DNA synthesis (A549 cells): no synergistic or additive effect | inclusion formation by serovar D [7]: efficiently suppressed inclusion formation | inhibition of MoPn growth (chlamydial DNA synthesis) (MoPn (biovar mouse)): dose-response curve of GM6001 inhibition of MoPn growth was obtained | chlamydial (L2) growth, MOMP dot blot (L2 [3]): no MOMP signals | chlamydial infection after pretreatment of EB stock (L2 [8]; EB stock incubated with GM6001, washed, added to untreated HeLa cells): completely ineffective | chlamydial infection after pretreatment of host HeLa cells (L2 [8]; HeLa cells cultured 2 h with 20 μM GM6001, washed 3 times before infection): completely ineffective | growth of Lactobacillus delbrueckii (OD600) [9]: did not show any effects | growth of S. enterica in liquid medium [10]: had no effect | growth of S. enterica inside HeLa cells (colony-forming units) [11]: did not inhibit | inhibition at 20 µM (Chlamydia; Chlamydia, HeLa, 20 μM, added at the end of attachment/entry period, read-out: inhibition of EB production): > 100% | inhibition of EB production (Chlamydia; added 8 h after infection): comparable inhibitory activity | reduction in EB production (Chlamydia; treatment started 24 h after infection): 99%

CC(C)C[C@H](CC(=O)NO)C(=O)N[C@@H](Cc1ccc2ccccc2c1)C(=O)N[C@@H](C)C(N)=O [TAPI-0, N-(R)-[2-(Hydroxyaminocarbonyl)methyl]-4-methylpentanoyl-L-naphthylalanyl-L-alanine amide]
inhibition of L2 infection (MOMP immunofluorescence) ([4]; at both 7.5 and 15 μM): strongly inhibited | growth of E. coli (OD600) (E. coli MG1655): did not show any effects

C[C@@H]1C[C@@H]([C@H](O)CC2CC(=O)NC(=O)C2)C(=O)[C@@H](C)C1 [cycloheximide]
DNA synthesis (thymidine incorporated into DNA) (HeLa cells [2]; uninfected HeLa cells, 40 hours treatment): effectively inhibited DNA synthesis activity | DNA synthesis (thymidine incorporated into DNA) (A549 cells; uninfected A549 cells, 40 hours treatment): effectively inhibited DNA synthesis activity

Reference: patent US7863335B2, “Non-antibiotic intervention of chlamydial infection” (The University of Medicine and Dentistry of New Jersey, priority 2004, dated 2011)
